{
  "source": "BindingDB's records for doi:10.1016/j.bmcl.2016.04.028",
  "about": "(Chinese Academy of Sciences (Cas), 2016)",
  "key": {"[1]": {"experiment": "Inhibition of FGFR1 in human H1581 cells assessed as suppression of cell proliferation after 72 hrs by SRB/CCK-8 assay"}, "[2]": {"experiment": "Inhibition of FGFR1 in human KG1 cells assessed as suppression of cell proliferation after 72 hrs by SRB/CCK-8 assay"}, "[3]": {"experiment": "Inhibition of FGFR3 in human RT112 cells assessed as suppression of cell proliferation after 72 hrs by SRB/CCK-8 assay"}},
  "data": [
    {"smiles": "COc1cc(CCc2cc(Nc3ncnc4cc(N5CCN6CCCCC6C5)ccc34)n[nH]2)cc(OC)c1", "note": "(stereo not drawn)", "values": [
      {"measurement": "IC50", "setting": "[1]", "value": "< 500", "unit": "pM"},
      {"measurement": "IC50", "setting": "[2]", "value": "< 200", "unit": "pM"},
      {"measurement": "IC50", "setting": "[3]", "value": "< 200", "unit": "pM"}
    ]}
  ]
}
